Among the data in US8143273B2, “Quinolizidine and indolizidine derivatives” (Hoffman-La Roche Inc., priority 2010, dated 2012) are IC50 values, retold here.

SMILES strings stand for the structures.

The assay deals with T1, mGlyT-1b (Mus musculus, UniProt P28571).
T1 construct: host or cells: Flp-In CHO
T1 sequence (P28571 1-651 isoform P28571-2): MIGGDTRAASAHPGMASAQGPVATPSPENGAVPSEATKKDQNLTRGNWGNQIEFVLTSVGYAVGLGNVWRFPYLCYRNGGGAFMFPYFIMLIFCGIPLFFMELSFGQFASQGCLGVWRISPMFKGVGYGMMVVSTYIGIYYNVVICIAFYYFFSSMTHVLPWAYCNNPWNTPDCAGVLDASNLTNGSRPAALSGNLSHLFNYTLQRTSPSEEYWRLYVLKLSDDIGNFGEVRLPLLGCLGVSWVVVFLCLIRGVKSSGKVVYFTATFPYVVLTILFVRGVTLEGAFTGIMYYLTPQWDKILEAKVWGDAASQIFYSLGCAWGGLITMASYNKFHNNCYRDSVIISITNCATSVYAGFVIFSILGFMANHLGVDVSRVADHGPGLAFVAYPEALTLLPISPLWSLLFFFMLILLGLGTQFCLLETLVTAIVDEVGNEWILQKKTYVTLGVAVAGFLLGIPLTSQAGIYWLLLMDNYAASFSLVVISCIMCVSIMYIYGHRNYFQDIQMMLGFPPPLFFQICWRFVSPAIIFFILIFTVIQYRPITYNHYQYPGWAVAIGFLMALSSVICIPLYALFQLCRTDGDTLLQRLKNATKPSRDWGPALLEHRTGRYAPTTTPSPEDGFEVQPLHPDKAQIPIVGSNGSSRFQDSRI
As to the kind of experiment: Glycine uptake inhibition assay (mGlyT-1b). In kind it is cell-based. Particulars: [3H]-glycine uptake in Flp-In CHO cells transfected with mGlyT-1b cDNA. As to the method:
DMEM complete medium: Nutrient mixture F-12 (Gibco Life-technologies), fetal bovine serum (FBS) 5%, (Gibco life technologies), Penicillin/Streptomycinl % (Gibco life technologies), Hygromycin 0.6 mg/ml (Gibco life technologies), Glutamine 1 mM Gibco life technologies)
Uptake buffer (UB): 150 mM NaCl, 10 mM Hepes-Tris, pH 7.4, 1 mM CaCl2, 2.5 mM KCl, 2.5 mM MgSO4, 10 mM (+) D-glucose.
Flp-In™ CHO (Invitrogen Cat no R758-07) cells stably transfected with mGlyTlb cDNA.
Glycine uptake inhibition assay (mGlyT-1b)
On day 1 mammalian cells, (Flp-In™ CHO), transfected with mGlyT-1b cDNA, were plated at the density of 40,000 cells/well in complete F-12 medium, without hygromycin in 96-well culture plates. On day 2, the medium was aspirated and the cells were washed twice with uptake buffer (UB). The cells were then incubated for 20 min at 22° C. with either (i) no potential competitor, (ii) 10 mM non-radioactive glycine, (iii) a concentration of a potential inhibitor. A range of concentrations of the potential inhibitor was used to generate data for calculating the concentration of inhibitor resulting in 50% of the effect (e.g. IC50, the concentration of the competitor inhibiting glycine uptake of 50%). A solution was then immediately added containing [^3H]-glycine 60 nM (11-16 Ci/mmol) and 25 μM non-radioactive glycine. The plates were incubated with gentle shaking and the reaction was stopped by aspiration of the mixture and washing (three times) with ice-cold UB. The cells were lysed with scintillation liquid, shaken 3 hours and the radioactivity in the cells was counted using a scintillation counter.

By IC50 is commonly meant the concentration that inhibits the measured activity by half. Lower therefore signals greater potency in that assay. As for `COc1cc(C(F)(F)F)cc(SC)c1C(=O)NC1(c2ccccc2)CCC2CCCN2C1` (single isomer, unassigned; diastereoisomer 2) [Example 4, 2-Methoxy-6-methylsulfanyl-N-(6-phenyl-octahydro-indolizin-6-yl)-4-trifluoromethyl-benzamide (diastereoisomer 2)], the IC50 turned out to be 13 nM. The compound `COc1cc(C(F)(F)F)cc(SC)c1C(=O)N[C@]1(c2ccccc2)CCCN2CCCC[C@@H]21` (racemic) [Example 1, 2-Methoxy-6-methylsulfanyl-N-((1S,R; 9aR,S)-1-phenyl-octahydro-quinolizin-1-yl)-4-trifluoromethyl-benzamide] came in with an IC50 of 80 nM. Then `COc1cc(C(F)(F)F)cc(SC)c1C(=O)N[C@]1(c2ccccc2)CCCN2CCC[C@@H]21` (racemic) [Example 2, 2-Methoxy-6-methylsulfanyl-N-((8S,R; 8aR,S)-8-phenyl-octahydro-indolizin-8-yl)-4-trifluoromethyl-benzamide], with 25 nM; and `COc1cc(C(F)(F)F)cc(SC)c1C(=O)NC1(c2ccccc2)CCC2CCCCN2C1` (centres unmarked) [Example 5, 2-Methoxy-6-methylsulfanyl-N-(3-phenyl-octahydro-quinolizin-3-yl)-4-trifluoromethyl-benzamide], with 28 nM.

As to `COc1cc(C(F)(F)F)cc(SC)c1C(=O)NC1(c2ccccc2)CCC2CCCN2C1` (single isomer, unassigned; diastereoisomer 1) [Example 3, 2-Methoxy-6-methylsulfanyl-N-(6-phenyl-octahydro-indolizin-6-yl)-4-trifluoromethyl-benzamide (diastereoisomer 1)], the IC50 came to 17 nM.
